From ChEMBL document CHEMBL6071165, “Design, synthesis and biological evaluation of plant-derived miliusol derivatives achieve TNBC profound regression in vivo” (Eur J Med Chem, 2024)

Legend:
[1] = system: BT-549; assay: Antiproliferative activity against human BT-549 cells assessed as inhibition of cell proliferation incubated for 24 hrs by MTT assay; format: functional, cell-based; settings: BT-549, 24 h
[2] = system: BT-549; assay: Antiproliferative activity against human BT-549 cells assessed as inhibition of cell proliferation incubated for 48 hrs by MTT assay; format: functional, cell-based; settings: BT-549, 48 h
[3] = system: MDA-MB-231; assay: Antiproliferative activity against human MDA-MB-231 cells assessed as inhibition of cell proliferation incubated for 24 hrs by MTT assay; format: functional, cell-based; settings: MDA-MB-231, 24 h
[4] = system: MDA-MB-231; assay: Antiproliferative activity against human MDA-MB-231 cells assessed as inhibition of cell proliferation incubated for 48 hrs by MTT assay; format: functional, cell-based; settings: MDA-MB-231, 48 h
[5] = system: BT-549; assay: Potency index, ratio of miliusol IC50 to test compound IC50 for antiproliferative activity against human BT-549 cells assessed as inhibition of cell proliferation incubated for 48 hrs by MTT assay; format: functional
[6] = Potency index, ratio of miliusol IC50 to test compound IC50 for antiproliferative activity against human MDA-MB-231 cells assessed as inhibition of cell proliferation incubated for 48 hrs by MTT assay; format: functional
[7] = Antiproliferative activity against human MCF-10A cells assessed as inhibition of cell proliferation incubated for 24 hrs by MTT assay; format: toxicity, cell-based
[8] = Antiproliferative activity against human MCF-10A cells assessed as inhibition of cell proliferation incubated for 48 hrs by MTT assay; format: toxicity, cell-based
[9] = (§1) Selectivity ratio of IC50 for antiproliferative activity against human MCF-10A cells assessed as inhibition of cell proliferation incubated for 24 hrs by MTT assay to IC50 for antiproliferative activity against human BT-549 cells assessed as inhibition of cell proliferation incubated for 24 hrs by MTT assay; format: toxicity, cell-based; settings: MCF-10A cells versus BT-549 cells, read-out: Ratio IC50
[10] = as §1, with “48” for “24”; format: toxicity, cell-based; settings: MCF-10A cells versus BT-549 cells, read-out: Ratio IC50
[11] = as §1, with “MDA-MB-231” for “BT-549”; format: cell-based; settings: MCF-10A cells versus MDA-MB-231 cells, read-out: Ratio IC50
[12] = as §1, with “48” for “24”, “MDA-MB-231” for “BT-549”; format: cell-based; settings: MCF-10A cells versus MDA-MB-231 cells, read-out: Ratio IC50

Row | SMILES | IC50 [1] [nM] | IC50 [2] [nM] | IC50 [3] [nM] | IC50 [4] [nM] | Ratio IC50 [5] | Ratio IC50 [6] | IC50 at 24 h [7] [nM] | IC50 at 48 h [8] [nM] | selectivity ratio at 24 h [9] | selectivity ratio at 48 h [10] | selectivity ratio at 24 h [11] | selectivity ratio at 48 h [12]
1 | CC(C)=CCC/C(C)=C/[C@H]1OC(=O)C[C@]12C[C@H](OC(=O)Cc1ccc(NC(=O)c3cccs3)cc1)C=CC2=O | 2240 | 640 | 1630 | 460 | – | – | – | – | – | – | – | –
2 | CC(C)=CCC/C(C)=C/[C@H]1OC(=O)C[C@]12C[C@H](OC(=O)Cn1cnc3c(=O)n(C)c(=O)n(C)c31)C=CC2=O | 5380 | 3470 | 2840 | 4420 | – | – | – | – | – | – | – | –
3 | COC(=O)C[C@@]12C[C@@H](C=CC1=O)O[C@@H]2/C=C(\C)CCC=C(C)C | 5330 | 980 | 9540 | 1910 | – | – | – | – | – | – | – | –
4 | CC(C)=CCC/C(C)=C/[C@H]1OC(=O)C[C@]12C[C@H](OC(=O)Cc1ccc(F)cc1)C=CC2=O | 3030 | 2220 | 5000 | 7480 | – | – | – | – | – | – | – | –
5 | CC(C)=CCC/C(C)=C/[C@H]1OC(=O)C[C@]12C[C@H](OC(=O)CNC(=O)OC(C)(C)C)C=CC2=O | 2110 | 1140 | 1660 | 3200 | 2.7 | 1.5 | – | – | – | – | – | –
6 | CCC/C=C/C(=O)O[C@@H]1C=CC(=O)[C@@]2(CC(=O)O[C@@H]2/C=C(\C)CCC=C(C)C)C1 | 19200 | 11000 | 43600 | 12400 | – | – | – | – | – | – | – | –
7 | CC(C)=CCC/C(C)=C/[C@H]1OC(=O)C[C@]12C[C@H](OC(=O)Cc1ccc(Cl)cc1Cl)C=CC2=O | 15600 | 8230 | 19000 | 35400 | – | – | – | – | – | – | – | –
8 | COc1ccccc1C(=O)Nc1ccc(CC(=O)O[C@@H]2C=CC(=O)[C@@]3(CC(=O)O[C@@H]3/C=C(\C)CCC=C(C)C)C2)cc1 | 1560 | 670 | 1290 | 540 | – | – | – | – | – | – | – | –
9 | CC(C)=CCC/C(C)=C/[C@H]1OC(=O)C[C@]12C[C@H](OC(=O)Cc1ccc(NC(=O)c3ccccc3Cl)cc1)C=CC2=O | 2480 | 840 | 960 | 580 | – | – | – | – | – | – | – | –
10 | CC(=O)Nc1ccc(CC(=O)O[C@@H]2C=CC(=O)[C@@]3(CC(=O)O[C@@H]3/C=C(\C)CCC=C(C)C)C2)cc1 | 7010 | 4190 | 4730 | 2160 | – | – | – | – | – | – | – | –
11 | CC(C)=CCC/C(C)=C/[C@H]1OC(=O)C[C@]12C[C@H](OC(=O)Cc1ccc(NC(=O)OC(C)(C)C)cc1)C=CC2=O | 2030 | 1320 | 460 | 1030 | – | – | – | – | – | – | – | –
12 | CC(C)=CCC/C(C)=C/[C@H]1OC(=O)C[C@]12C[C@H](OC(=O)c1cc3ccccc3n1C)C=CC2=O | 10400 | 1220 | 2510 | 1340 | – | – | – | – | – | – | – | –
13 | CC(C)=CCC/C(C)=C/[C@H]1OC(=O)C[C@]12C[C@H](OC(=O)Cn1nnc3ccccc31)C=CC2=O | 8310 | 3900 | 6350 | 2410 | – | – | – | – | – | – | – | –
14 | CC(C)=CCC/C(C)=C/[C@H]1OC(=O)C[C@]12C[C@H](OC(=O)Cc1ccc(NC(=O)/C=C/c3ccccc3)cc1)C=CC2=O | 990 | 220 | 850 | 440 | – | – | – | – | – | – | – | –
15 | CC(C)=CCC/C(C)=C/[C@H]1OC(=O)C[C@]12C[C@H](OC(=O)Cc1ccc3c(c1)OCO3)C=CC2=O | 6810 | 3380 | 2230 | 2770 | – | – | – | – | – | – | – | –
16 | CC(C)=CCC/C(C)=C/[C@H]1OC(=O)C[C@]12C[C@H](OC(=O)Cc1ccc(NC(=O)[C@H](Cl)c3ccccc3)cc1)C=CC2=O | 1040 | 580 | 630 | 420 | – | – | – | – | – | – | – | –
17 | C=CC(=O)Nc1ccc(CC(=O)O[C@@H]2C=CC(=O)[C@@]3(CC(=O)O[C@@H]3/C=C(\C)CCC=C(C)C)C2)cc1 | 8710 | 3110 | 4540 | 1620 | – | – | – | – | – | – | – | –

Continued, in another order:

Row | IC50 [1] [nM] | IC50 [2] [nM] | IC50 [3] [nM] | IC50 [4] [nM] | SMILES | Ratio IC50 [5] | Ratio IC50 [6] | IC50 at 24 h [7] [nM] | IC50 at 48 h [8] [nM] | selectivity ratio at 24 h [9] | selectivity ratio at 48 h [10] | selectivity ratio at 24 h [11] | selectivity ratio at 48 h [12]
18 | 390 | 370 | 2220 | 730 | CC(C)=CCC/C(C)=C/[C@H]1OC(=O)C[C@]12C[C@H](OC(=O)Cc1ccc(NC(=O)c3ccccc3)cc1)C=CC2=O | – | – | – | – | – | – | – | –
19 | 2300 | 230 | 1090 | 560 | CC(C)=CCC/C(C)=C/[C@H]1OC(=O)C[C@]12C[C@H](OC(=O)Cc1ccc(NC(=O)C3CC3)cc1)C=CC2=O | – | – | – | – | – | – | – | –
20 | 4850 | 3040 | 4190 | 4680 | CC(C)=CCC/C(C)=C/[C@H]1OC(=O)C[C@]12C[C@H](O)C=CC2=O | – | – | – | – | – | – | – | –
21 | 10100 | 2460 | 4820 | 4140 | CC(C)=CCC/C(C)=C/[C@H]1OC(=O)C[C@]12C[C@H](OC(=O)Cc1cccs1)C=CC2=O | – | – | – | – | – | – | – | –
22 | 280 | 50 | 1720 | 450 | CC(=O)O[C@H]1C(=O)[C@@]2(C)[C@H]([C@H](OC(=O)c3ccccc3)[C@]3(O)C[C@H](OC(=O)[C@H](O)[C@@H](NC(=O)c4ccccc4)c4ccccc4)C(C)=C1C3(C)C)[C@]1(OC(C)=O)CO[C@@H]1C[C@@H]2O [PACLITAXEL] | – | – | 330 | 90 | 1.18 | 1.8 | 0.19 | 0.2
23 | 19400 | 2870 | 8850 | 1660 | CC(C)=CCC/C(C)=C/[C@H]1OC(=O)C[C@]12C[C@H](OC(=O)/C=C/C=C/c1ccc3c(c1)OCO3)C=CC2=O | – | – | – | – | – | – | – | –
24 | 4930 | 2140 | 3070 | 5070 | CC(C)=CCC/C(C)=C/[C@H]1OC(=O)C[C@]12C[C@H](OC(=O)Cc1ccc(F)cc1Cl)C=CC2=O | – | – | – | – | – | – | – | –
25 | 2090 | 1450 | 1300 | 780 | COc1cccc(OC)c1C(=O)Nc1ccc(CC(=O)O[C@@H]2C=CC(=O)[C@@]3(CC(=O)O[C@@H]3/C=C(\C)CCC=C(C)C)C2)cc1 | – | – | – | – | – | – | – | –
26 | 5030 | 620 | 3430 | 2060 | CC(C)=CCC/C(C)=C/[C@H]1OC(=O)C[C@]12C[C@H](OC(=O)c1csc(Br)n1)C=CC2=O | 5 | – | – | – | – | – | – | –
27 | 3310 | 1550 | 3330 | 1340 | CC(C)=CCC/C(C)=C/[C@H]1OC(=O)C[C@]12C[C@H](OC(=O)CCC(=O)NCC1CC3C=CC1C3)C=CC2=O (stereo not given in full) | – | – | – | – | – | – | – | –
28 | 1750 | 800 | 1360 | 570 | CC(C)=CCC/C(C)=C/[C@H]1OC(=O)C[C@]12C[C@H](OC(=O)Cc1ccc(NC(=O)C(C)(C)C)cc1)C=CC2=O | – | – | – | – | – | – | – | –
29 | 4210 | 2260 | 8140 | 4230 | COC(=O)C[C@@]1([C@H](O)/C=C(\C)CCC=C(C)C)C[C@H](O)C=CC1=O [(+)-MILIUSANE XVIII] | – | – | – | – | – | – | – | –
